12 molecules from PubChem BioAssay (NCI) can be followed below.

Structures are written as SMILES.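 How tested: cells in 96-well plates exposed to compound for 48 hours at five concentrations. TGI marks complete inhibition of growth.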 Bounds are passed on as bounds.

Some test systems named below: 786-0 renal; CCRF-CEM leukemia; M14 melanoma; MDA-N; NCI-H226 lung; NCI-H23 lung; PC-3 prostate; SW-620 colon; T-47D breast; UACC-257 melanoma; UO-31 renal.
Common to all, as to test: inhibition of tumour cell growth, NCI panel, 48 h

For `O=C(OC1C2OC(=O)c3cc(O)c(O)c(O)c3Oc3cc4c(c(O)c3O)-c3c(cc(O)c(O)c3O)C(=O)OCC3OC(O)C(OC(=O)c5cc(O)c(O)c(O)c5Oc5cc6c(c(O)c5O)-c5c(cc(O)c(O)c5O)C(=O)OC1C(COC6=O)OC2O)C(OC(=O)c1cc(O)c(O)c(O)c1)C3OC4=O)c1cc(O)c(O)c(O)c1` (configuration not stated), the TGI in the assay with 786-0 renal was 47.1 µM; in the assay on CCRF-CEM leukemia, over 100 µM; in the assay on M14 melanoma, over 100 µM; with MDA-N, 46.6 µM; in the assay with NCI-H226 lung, over 100 µM; in the assay with NCI-H23 lung, 62.6 µM. The TGI was 87.7 µM in the assay on PC-3 prostate; 40.5 µM with SW-620 colon; over 100 µM in the assay on T-47D breast; over 100 µM with UACC-257 melanoma; over 100 µM in the assay on UO-31 renal.
For `COc1ccc(-n2c(N)c(C#N)[nH]c2=O)cc1`, the TGI in the assay with 786-0 renal, in the assay on CCRF-CEM leukemia, with M14 melanoma, in the assay on MDA-N, in the assay with NCI-H226 lung and with NCI-H23 lung was over 10 µM in each case. For the same molecule, the TGI in the assay on PC-3 prostate, with SW-620 colon, in the assay on T-47D breast, in the assay with UACC-257 melanoma and with UO-31 renal was over 10 µM in each case.
With `NC(=O)N/N=C(/CC1C(=O)Oc2ccccc21)c1ccccc1O` (configuration not stated), the TGI with 786-0 renal is over 100 µM; in the assay with CCRF-CEM leukemia, 56.9 µM; in the assay with M14 melanoma, over 100 µM; with MDA-N it was over 100 µM; with NCI-H226 lung, 82.5 µM; in the assay with NCI-H23 lung, over 100 µM. The TGI with PC-3 prostate, with SW-620 colon, in the assay on T-47D breast, in the assay on UACC-257 melanoma and with UO-31 renal was over 100 µM each time.
Turning to `CN1CN(c2ccccc2)C2(CCN(CC(C)(c3ccc(F)cc3)C3OCCCO3)CC2)C1=O` (configuration not stated), the TGI in the assay on 786-0 renal was found to be 43.1 µM; with CCRF-CEM leukemia, 45.9 µM; in the assay with M14 melanoma, 34.5 µM; in the assay with MDA-N, 31.6 µM; in the assay on NCI-H226 lung, 42.7 µM; in the assay with NCI-H23 lung, 32.9 µM. The TGI stood at 34.7 µM with PC-3 prostate; 43.7 µM with SW-620 colon; 56.2 µM with T-47D breast; 31.5 µM with UACC-257 melanoma; 11 µM in the assay on UO-31 renal.
As for `Nc1nc(Cl)c(N)c(NCC2(CO)CC2)n1`, the TGI in the assay with 786-0 renal, in the assay with CCRF-CEM leukemia, in the assay with M14 melanoma, with MDA-N, with NCI-H226 lung and with NCI-H23 lung was over 100 µM in each case. The TGI in the assay with PC-3 prostate, in the assay on SW-620 colon, in the assay with T-47D breast, in the assay with UACC-257 melanoma and in the assay with UO-31 renal was over 100 µM each time.
Regarding `CCN(CC)CCCNc1ccc2nc(C)n3c4ccc(O)cc4c(=O)c1c23`, the TGI was determined as 16.8 µM in the assay on 786-0 renal; 46.7 µM in the assay with CCRF-CEM leukemia; 21.5 µM with M14 melanoma; 20.6 µM in the assay with MDA-N; 21.4 µM with NCI-H226 lung; 15.8 µM in the assay with NCI-H23 lung. Moreover, the TGI came to 12.6 µM with PC-3 prostate; 14.9 µM with SW-620 colon; 31.4 µM with T-47D breast; 29 µM in the assay on UACC-257 melanoma; 19.3 µM with UO-31 renal.
`O=C(/C=C/c1cccc(Oc2ccccc2)c1)NCc1ccc(C(=O)NCc2ccccc2)cc1`: the TGI is over 100 µM with 786-0 renal; over 100 µM in the assay with CCRF-CEM leukemia; over 100 µM in the assay on M14 melanoma; over 100 µM in the assay on MDA-N; 88.1 µM in the assay with NCI-H226 lung; over 100 µM in the assay on NCI-H23 lung. Moreover, the TGI with PC-3 prostate, with SW-620 colon, with T-47D breast, in the assay with UACC-257 melanoma and in the assay on UO-31 renal was over 100 µM throughout.
For the molecule `CCCCCCCCCCCCCCCCNC(=O)C(=O)/C=C(\O)c1ccc(C)cc1`, the TGI in the assay with 786-0 renal, in the assay on CCRF-CEM leukemia, in the assay with M14 melanoma, in the assay on MDA-N, in the assay on NCI-H226 lung and with NCI-H23 lung was over 10 µM throughout. Moreover, the TGI with PC-3 prostate, in the assay on SW-620 colon, in the assay with T-47D breast, with UACC-257 melanoma and with UO-31 renal was over 10 µM in each case.
With `O=C(/C=C/c1ccc(-c2ccccc2)cc1)NCc1ccc(C(=O)NCc2ccccc2)cc1`, the TGI in the assay with 786-0 renal, in the assay with CCRF-CEM leukemia, with M14 melanoma, with MDA-N, in the assay with NCI-H226 lung and with NCI-H23 lung was over 100 µM in each case. The TGI with PC-3 prostate, with SW-620 colon, in the assay with T-47D breast, with UACC-257 melanoma and in the assay with UO-31 renal was over 100 µM in each case.
For the molecule `C/C(=N\N=C(\N)SB(F)F)c1ccc2ccccc2c1`, the TGI with 786-0 renal is over 100 µM; in the assay on CCRF-CEM leukemia, 56.7 µM; in the assay with M14 melanoma it was over 100 µM; in the assay with MDA-N, over 100 µM; with NCI-H226 lung, over 100 µM; with NCI-H23 lung it was over 100 µM. For the same molecule, the TGI with PC-3 prostate, with SW-620 colon, in the assay with T-47D breast, with UACC-257 melanoma and with UO-31 renal was over 100 µM throughout.
For `CC(NC(=O)NC(C)(C)C)NC(=O)C(N)CC(=O)O` (configuration not stated), the TGI with 786-0 renal, in the assay with CCRF-CEM leukemia, in the assay with M14 melanoma, in the assay on MDA-N, with NCI-H226 lung and in the assay with NCI-H23 lung was over 100 µM in each case. Also, the TGI in the assay on PC-3 prostate, in the assay with SW-620 colon, in the assay with T-47D breast, with UACC-257 melanoma and in the assay on UO-31 renal was over 100 µM throughout.
For `CCOC(=O)c1nnsc1N/N=C\c1ccc([N+](=O)[O-])cc1`, the TGI with 786-0 renal, in the assay with CCRF-CEM leukemia, in the assay on M14 melanoma, with MDA-N, in the assay with NCI-H226 lung and in the assay on NCI-H23 lung was over 100 µM each time. In addition, the TGI in the assay with PC-3 prostate, in the assay on SW-620 colon, with T-47D breast, with UACC-257 melanoma and in the assay with UO-31 renal was over 100 µM each time.
